ChEMBL document CHEMBL1128119, “Partial structures of the fungal toxin aflatrem, methyl-substituted 6,8-dioxabicyclo[3.2.1]octan-2-ones have anticonvulsant activity” (Bioorg Med Chem Lett, 1995)

Key:
Mus musculus = species: Mus musculus; experiment: Effective dose required for anticonvulsant activity against pentylenetetrazole-induced seizures in mice; type: functional
[1] = molecular target: GABA-A receptor; anion channel; experiment: Displacement of [35S]TBPS from Gamma-aminobutyric acid A (GABA-A) receptor of rat cerebral cortex; type: tissue-based
[2] = Toxic dose at which 50 percent of the mice failed the rotarod toxicity test; type: organism-based; settings: mouse, in vivo

| Compound | ED50 (Mus musculus) [mg/kg] | IC50 [1] [µM] | TD50 [2] [mg/kg] |
| --- | --- | --- | --- |
| C[C@@H]1CC(=O)[C@H]2O[C@@H]1OC2(C)C | 110 | 2850 |  |
| C[C@H]1CC(=O)[C@@H]2O[C@H]1OC2(C)C | 145 | 3090 |  |
| CCC1(C)CCOC1=O (stereo not drawn) |  |  | > 500 |
| C=CC(C)(C)c1cccc2[nH]c3c(c12)C[C@@H]1CC[C@@]2(O)C4=CC(=O)[C@@H]5O[C@@]4(CC[C@]2(C)[C@@]31C)OC5(C)C |  | 4.3 |  |
| CC1CC(=O)C2OC1(C)OC2(C)C (stereo not drawn) | 140 | 2310 | > 300 |
| CC1CC(=O)C2OC1OC2(C)C (stereo not drawn) | 131 | 3020 | > 300 |
| CCC1CCCCC1=O (stereo not drawn) | 140 | 1200 | 245 |
| CC1(C)OC2CCC(=O)C1O2 (stereo not drawn) | 192 | 5090 | > 300 |
| CC1(C)OC2C=CC(=O)C1O2 (stereo not drawn) | > 300 |  | < 100 |
| CC12CCC(=O)C(O1)C(C)(C)O2 (stereo not drawn) | 247 | 3130 | > 300 |
